The values below come from ChEMBL document CHEMBL1130242, “3 Beta-(4-ethyl-3-iodophenyl)nortropane-2 beta-carboxylic acid methyl ester as a high-affinity selective ligand for the serotonin transporter” (J Med Chem, 1997).

Test [1] addresses Norepinephrine transporter (Rattus norvegicus, UniProt Q9WTR4). Briefly: In vitro inhibitory activity against radioligand [3H]-[…] binding to norepinephrine transporter (NET) in rat cortical tissue.
Test [2] addresses Sodium-dependent dopamine transporter (Rattus norvegicus, UniProt P23977). Description: In vitro inhibitory activity against radioligand [3H]-[…] binding to dopamine transporter (DAT) in rat striatal tissue. The class given is tissue-based, Striatum.
Test [3] addresses Monoamine transporters; serotonin & dopamine (Rattus norvegicus) (UniProt P31652+P23977). Description: Selectivity ratio is IC50 value of 5-HTT to that of DAT. The test is classed as protein assay.
Test [4] addresses Sodium-dependent serotonin transporter (Rattus norvegicus, UniProt P31652). Description: In vitro inhibitory activity against radioligand [3H]paroxetine binding to serotonin transporter (5-HTT) in rat midbrain tissue. The class given is tissue-based.
Test [5] addresses Monoamine transporters; Norepininephrine & dopamine (Rattus norvegicus) (UniProt P23977+Q9WTR4). Briefly: Selectivity ratio is IC50 value of NET to that of DAT. The class given is protein assay.

Monoamine transporters; serotonin & dopamine (Rattus norvegicus), sequence (P23977 whole entry, looked up): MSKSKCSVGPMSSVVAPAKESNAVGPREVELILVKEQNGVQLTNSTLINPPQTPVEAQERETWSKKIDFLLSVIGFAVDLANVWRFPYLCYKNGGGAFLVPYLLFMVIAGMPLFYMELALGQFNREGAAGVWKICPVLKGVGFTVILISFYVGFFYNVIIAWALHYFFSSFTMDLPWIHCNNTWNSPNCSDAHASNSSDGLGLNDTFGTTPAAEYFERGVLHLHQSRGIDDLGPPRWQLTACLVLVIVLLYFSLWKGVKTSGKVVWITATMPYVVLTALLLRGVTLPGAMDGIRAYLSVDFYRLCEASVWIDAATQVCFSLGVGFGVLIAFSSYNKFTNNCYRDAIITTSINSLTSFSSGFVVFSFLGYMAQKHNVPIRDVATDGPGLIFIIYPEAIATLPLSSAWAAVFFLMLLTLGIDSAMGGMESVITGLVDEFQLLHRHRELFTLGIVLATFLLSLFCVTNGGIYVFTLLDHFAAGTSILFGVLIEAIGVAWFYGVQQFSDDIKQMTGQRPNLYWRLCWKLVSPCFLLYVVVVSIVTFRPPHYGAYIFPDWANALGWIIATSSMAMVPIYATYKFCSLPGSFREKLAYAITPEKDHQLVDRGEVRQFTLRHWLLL
Monoamine transporters; serotonin & dopamine (Rattus norvegicus), sequence (P31652 whole entry, looked up): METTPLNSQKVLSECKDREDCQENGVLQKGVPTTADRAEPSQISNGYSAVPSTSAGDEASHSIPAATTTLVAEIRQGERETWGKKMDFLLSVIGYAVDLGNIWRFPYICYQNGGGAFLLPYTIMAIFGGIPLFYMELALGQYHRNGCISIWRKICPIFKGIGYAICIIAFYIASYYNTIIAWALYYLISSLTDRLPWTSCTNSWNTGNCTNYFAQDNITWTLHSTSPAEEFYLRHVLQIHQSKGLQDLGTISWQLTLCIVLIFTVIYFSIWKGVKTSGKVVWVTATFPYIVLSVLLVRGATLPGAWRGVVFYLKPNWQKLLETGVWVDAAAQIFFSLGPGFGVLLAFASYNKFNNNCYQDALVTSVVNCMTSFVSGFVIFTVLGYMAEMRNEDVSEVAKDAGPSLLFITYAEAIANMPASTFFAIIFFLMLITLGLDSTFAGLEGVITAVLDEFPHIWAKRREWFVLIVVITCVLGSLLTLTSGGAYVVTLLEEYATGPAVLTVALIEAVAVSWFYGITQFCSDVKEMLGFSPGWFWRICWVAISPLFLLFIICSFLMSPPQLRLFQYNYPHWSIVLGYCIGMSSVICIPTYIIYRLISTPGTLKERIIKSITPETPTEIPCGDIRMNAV
Sodium-dependent dopamine transporter, sequence (P23977 whole entry): as the sequence (P23977 whole entry, looked up) above
Norepinephrine transporter, sequence (Q9WTR4 whole entry): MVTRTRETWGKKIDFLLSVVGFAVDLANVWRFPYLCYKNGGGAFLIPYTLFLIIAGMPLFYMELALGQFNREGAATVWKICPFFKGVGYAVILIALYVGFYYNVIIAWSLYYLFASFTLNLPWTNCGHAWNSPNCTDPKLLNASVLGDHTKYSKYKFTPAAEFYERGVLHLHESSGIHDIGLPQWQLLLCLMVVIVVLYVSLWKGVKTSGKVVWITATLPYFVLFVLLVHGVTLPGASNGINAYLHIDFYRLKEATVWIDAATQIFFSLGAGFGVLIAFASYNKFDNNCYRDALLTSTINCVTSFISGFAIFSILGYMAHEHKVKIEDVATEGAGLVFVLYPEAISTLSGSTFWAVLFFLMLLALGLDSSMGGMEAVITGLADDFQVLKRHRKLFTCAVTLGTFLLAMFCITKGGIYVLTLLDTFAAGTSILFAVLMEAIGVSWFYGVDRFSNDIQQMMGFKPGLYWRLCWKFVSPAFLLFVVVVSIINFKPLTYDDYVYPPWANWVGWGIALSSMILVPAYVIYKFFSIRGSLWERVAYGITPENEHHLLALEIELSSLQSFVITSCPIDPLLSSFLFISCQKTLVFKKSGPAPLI
Sodium-dependent serotonin transporter, sequence (P31652 whole entry): as the sequence (P31652 whole entry, looked up) above

Regarding `COC(=O)C1C(c2ccc(Cl)cc2)CC2CC[C@H]1N2` (some centres undefined), the half-inhibitory concentration (IC50) – broadly, the midpoint of a concentration-inhibition curve – came to 4.13 nM in test [1], 0.62 nM in test [2] and 5.45 nM in test [4]. Besides, the results for the Ratio in test [3] and in test [5] were 9 and 7, respectively.

Regarding `COC(=O)C1C(c2cccc(I)c2)CC2CC[C@H]1N2C` (some centres undefined), the half-inhibitory concentration (IC50) turned out to be 1590 nM in test [1], 26 nM in test [2] and 38.8 nM in test [4]. Besides, the Ratio in test [3] came to 1.5; in test [5], 61.

As for `CCc1ccc(C2CC3CC[C@H](C2C(=O)OC)N3C)cc1` (some centres undefined), the IC50 in test [1] was 39 nM. Moreover, the Ratio came to 0.52 in test [3] and 71 in test [5].

On to `CCc1ccc(C2CC3CC[C@@H](N3)C2C(=O)OC)cc1I` (some centres undefined), for which the values for the IC50 in test [1] and in test [2] were 148 nM and 329 nM, respectively. The Ratio worked out at 87 in test [3] and 40 in test [5].

For `CCc1ccc(C2CC3CC[C@@H](N3)C2C(=O)OC)cc1` (some centres undefined), the Ratio in test [3] amounted to 0.2; in test [5], 2.5.
